Earlier results in patent US8541386B2, “Cannabinoid 2 (CB2) receptor gene promoter and unique RNA transcripts in B cells and methods of use” (University of South Florida, priority 2009, dated 2013).

Test system: IL-4/anti-CD40 stimulated B cells
Conditions: co-treatment of IL-4/anti-CD40 stimulated B cells; earlier work of the inventors' lab

## CCCCCCC(C)(C)c1ccc([C@@H]2C[C@H](O)CC[C@H]2CCCO)c(O)c1 [CP55940]
  immunoglobulin class switching to IgE: increased immunoglobulin class switching to IgE
